Tests used:
[1] = system: bleomycin-induced pulmonary fibrosis; assay: Effect on lung morphology following bleomycin-induced pulmonary fibrosis (histology, Masson's Trichrome staining); format: in vivo, Male Wistar rats; conditions: bleomycin 10 U/kg intratracheal; daily oral treatment with 50 mg/kg, days 1-21; lungs removed 21 days after bleomycin; FIG. 1C
Experimental: (A) Effect of a representative compound on lung morphology following bleomycin-induced pulmonary fibrosis. Bleomycin sulfate (Bleomycin […]) was purchased from a local pharmacy. All experiments were performed in accordance with German guidelines for animal welfare, performed by persons certified to work with animals and approved by the responsible authorities. Male Wistar rats were intratracheally injected with Bleomycin sulfate (10 U/kg body weight in 300 μl saline) or saline alone (saline control) using a catheter (0.5 mm internal diameter, […]) through the nasal passage, following exposure to the anaesthetic Isofluorane for 5 minutes. The following day, the rats were orally treated with Example A (compound (12)) or saline suspended in 1 ml 0.1% Natrosol. Control rats were administered 1 ml 0.1% Natrosol (vehicle control). [table] 21 days following bleomycin instillation, the rats were killed with a lethal intraperitoneal injection of NarcorenTM (Pentobarbital Sodium, Rhone Merieux). The lungs were then removed, blotted dry and half was snap frozen in liquid nitrogen and stored at -80° C. The other half was fixed in 4% formalin for subsequent paraffin embedding and histology. […] Collagen deposition was assessed using Masson's Trichrome staining.

[2] = system: procollagen I gene expression; assay: Expression of fibrotic marker genes following bleomycin-induced pulmonary fibrosis (real time PCR, lung): procollagen I; format: in vivo, Male Wistar rats; conditions: bleomycin 10 U/kg intratracheal; daily oral treatment with 50 mg/kg, days 1-21; lung RNA at day 21; vs bleomycin + vehicle; FIG. 2
Experimental: (§1) All experiments were performed in accordance with German guidelines for animal welfare, performed by persons certified to work with animals and approved by the responsible authorities. Male Wistar rats were intratracheally injected with Bleomycin sulfate (10 U/kg body weight in 300 μl saline) or saline alone (saline control) using a catheter (0.5 mm internal diameter, […]) through the nasal passage, following exposure to the anaesthetic Isofluorane for 5 minutes. The following day, the rats were orally treated with Example A (compound (12)) or saline suspended in 1 ml 0.1% Natrosol. Control rats were administered 1 ml 0.1% Natrosol (vehicle control).
(§2) 21 days following bleomycin instillation, the rats were killed with a lethal intraperitoneal injection of Narcoren™ (Pentobarbital Sodium, Rhone Merieux). The lungs were then removed, blotted dry and half was snap frozen in liquid nitrogen and stored at −80° C. The other half was fixed in 4% formalin for subsequent paraffin embedding and histology.
(§3) (B) Effect of a representative compound on expression of fibrotic marker genes following bleomycin-induced pulmonary fibrosis.
(§4) One part of the frozen lung tissue dedicated to investigation of gene expression was cut into small pieces using a sterile scalpel blade. […] The concentration of each sample was then measured using a spectrophotometer. […]

[3] = system: fibronectin gene expression; assay: Expression of fibrotic marker genes following bleomycin-induced pulmonary fibrosis (real time PCR, lung): fibronectin; format: in vivo, Male Wistar rats; conditions: bleomycin 10 U/kg intratracheal; daily oral treatment with 50 mg/kg, days 1-21; lung RNA at day 21; vs bleomycin + vehicle; FIG. 3
Experimental: as §1, §2, §3, §4

Row | Compound | melting point | lung fibrosis (lung morphology, collagen deposition by Masson's Trichrome staining) [1] | expression of fibrotic marker genes: procollagen I (normalized to 18S) [2] | expression of fibrotic marker genes: fibronectin (normalized to 18S) [3]
1 | COC(=O)c1ccc2c(c1)NC(=O)/C2=C(\Nc1ccc(C(=O)N2CCN(C)[C@@H](C)C2)cc1)c1ccccc1 [(60), (S)-3-(Z)-[1-{4-[(3,4-dimethyl-piperazin-1-yl)-carbonyl]-phenylamino}-1-phenyl-methylidene]-6-methoxycarbonyl-2-indolinone] | 265 to 266 °C |  |  | 
2 | COC(=O)c1ccc2c(c1)NC(=O)/C2=C(\Nc1ccc(C(=O)N2CCN(C)CC2)cc1)c1ccccc1 [Example A, methyl 3-(Z)-[1-{4-[(4-methyl-piperazin-1-yl)-carbonyl]-phenylamino}-1-phenyl-methylidene]-2-indolinone-6-carboxylate] |  | nearly complete reversal of lung fibrosis | significant (p<0.0001) inhibition | significant (p<0.0001) inhibition
